Test system: Erysiphe graminis f.sp. tritici
Test: Efficacy against Erysiphe graminis f.sp. tritici on wheat (Example B-1)
Type: in vivo
Details: single active ingredient
Source text: A synergistic effect exists whenever the action of an active ingredient combination is greater than the sum of the actions of the individual components. The action to be expected E for a given active ingredient combination obeys the so-called COLBY formula and can be calculated as follows (COLBY, S.R. “Calculating synergistic and antagonistic responses of herbicide combination”. Weeds, Vol. 15, pages 20-22; 1967):
ppm=milligrams of active ingredient (=a.i.) per litre of spray mixture
X=% action by active ingredient I using p ppm of active ingredient
Y=% action by active ingredient II using q ppm of active ingredient.
According to Colby, the expected (additive) action of active ingredients I+II using p+q ppm of [formula]
If the action actually observed (O) is greater than the expected action (E), then the action of the combination is superadditive, i.e. there is a synergistic effect.
Wheat plants c.v. “Arina”, about 10 days old, are sprayed with aqueous suspensions of the active ingredients or mixtures thereof. One day later, the plants are inoculated by dusting with spores of Erysiphe graminis. The tests may also be carried out with curative applications, i.e. application 1-3 days after artificial inoculation of the plants. The plants are incubated in the greenhouse or in climate chambers at 20° C., 70% relative humidity. 7 to 10 days after inoculation, fungal attack on primary leaves is assessed.
The efficacy of the rest combinations and the single active ingredients in the above tests is determined by comparing the degree of fungal attack with that on untreated, similarly inoculated check plants.

## CON=C(C(=O)OC)c1ccccc1CON=C(C)c1cccc(C(F)(F)F)c1 [cmpd. V, methyl 2-{2-[4-(3-trifluoromethylphenyl)-3-aza-2-oxa-3-pentenyl]-phenyl}-2-methoxyimino-acetate]
Blumeria graminis, Table 3, 0.25 ppm, read-out: % activity observed
  inhibition at 0.25 ppm: 29%
Blumeria graminis, Table 3, 0.5 ppm, read-out: % activity observed
  inhibition at 0.5 ppm: 54%

## Cc1cc(C2CC2)nc(Nc2ccccc2)n1 [Cyprodinil, cyprodinil]
Table 2, 10 ppm
  % activity observed: 0%
Table 2, 25 ppm
  % activity observed: 15%

## N#Cc1c[nH]cc1-c1cccc2c1OC(F)(F)O2 [Fludioxonil, fludioxonil]
Table 1, 250 ppm
  % activity observed: 20%
